Measurements from paper PMC3534288 (BMC Biophysics, 2012).
Read-outs that look alike come from different tables or passages of the source. Values belong to the compound of their own block, whether it stands above or below them.

Assays:
hCA XIII [1] = biological target: T1, hCA XIII (Homo sapiens, UniProt Q8N1Q1); assay: Intrinsic binding parameters by dissection of binding-linked protonation reactions; settings: deprotonated inhibitor anion to protonated zinc-bound water form, 25°C
T1 construct: made in house; host or cells: Escherichia coli
T1 sequence (Q8N1Q1 whole entry): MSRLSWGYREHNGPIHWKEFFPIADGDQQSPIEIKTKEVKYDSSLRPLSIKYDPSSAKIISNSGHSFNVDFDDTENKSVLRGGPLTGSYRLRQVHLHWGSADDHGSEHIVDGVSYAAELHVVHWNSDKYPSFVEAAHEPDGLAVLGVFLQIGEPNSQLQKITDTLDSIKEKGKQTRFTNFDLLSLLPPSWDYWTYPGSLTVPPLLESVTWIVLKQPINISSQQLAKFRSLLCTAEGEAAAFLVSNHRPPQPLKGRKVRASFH
Text: Here we use the same formalism to dissect protonation reactions as previously described. The intrinsic binding constant is related to the observed binding constant and the fractions of active binding species:
(1) Kb=Kb_obs/fRSO2NH^−fCAZnH2O
Where the fractions deprotonated sulfonamide and protonated CA as a function of pH are:
(4) ΔbHintr=ΔbHobs−ninhΔb_proton_inhH−nCAΔb_proton_CAH+nΔb_proton_bufH
The intrinsic entropy of binding was obtained by subtracting Gibbs free energy from the enthalpy using standard thermodynamic equations. The intrinsic heat capacity of binding could be determined by carrying out all or part of ITC and TSA experiments at several temperatures.

[2] = sulfonamide group, 25°C; cited from earlier work
[3] = Protonation of inhibitor sulfonamide group (ITC titration with acid, pKa); format: physicochemical
Method: Dissection of contribution from inhibitor protonation requires a set of experiments with pure inhibitor in the absence of protein to determine the pKa and the enthalpy of inhibitor protonation. The deprotonation pKa could be determined by pH titration as previously explained. The enthalpy of protonation is determined by titrating alkaline solution of the inhibitor with acid. […] Pure crystalline inhibitor is in protonated electrostatically neutral form. Therefore, 1.5 equivalent of NaOH is added to the inhibitor solution to make it deprotonated. […] This enthalpy of the second transition is the enthalpy of interest.

hCA XIII [4] = biological target: T1, hCA XIII; assay: Isothermal titration calorimetry (ITC) of inhibitor binding to hCA XIII, observed parameters
Method: ITC experiments were performed using a VP-ITC instrument (Microcal, Inc., GE-Healthcare, Northampton, MA, USA). For ligand-protein binding experiments 5–20 μM (usually 10) protein solution in the cell and 50–200 μM (usually 100) ligand solution in the syringe were used. A typical experiment consisted of 25–30 injections (usually 25), 10 μL each, with 3–5 min (usually 4 min) intervals between injections. Experiments were performed at different temperatures in various buffers containing 50 mM NaCl and 0.5-2% DMSO concentration. All experiments were repeated at least twice. For the determination of ligand binding at various pHs, the solution pH was carefully checked in the presence of protein and ligand, in the cell and syringe, respectively.

CA II = settings: pH 7.0; read-out: observed Kis and Kds; cited from earlier work

TΔbSintr (hCA XIII [1]): -2.13 kcal/mol
ΔbGintr (hCA XIII [1]): -9.92 kcal/mol
ΔbHintr (hCA XIII [1]): -12 kcal/mol
ΔbSintr (hCA XIII [1]): −29.8 J/(mol × K)
SMILES: CC(=O)Nc1nnc(S(N)(=O)=O)s1 [AZM, acetazolamide]
Ka [2]: 50 nM
TΔb_protonS [2]: 4.47 kcal/mol
pKa [2]: 7.30
Δb_protonG [2]: -9.97 kcal/mol
Δb_protonH [2]: -5.5 kcal/mol
Δb_protonS [2]: 62.6 J/(mol × K)

SMILES: CCOc1ccc2nc(S(N)(=O)=O)sc2c1 [EZA, ethoxzolamide]
Δb_protonCp ([3]; slope of protonation enthalpy versus temperature): 88.7 J/(mol × K)
Ka ([3]; sulfonamide group, 25°C): 10 nM
TΔb_protonS ([3]; sulfonamide group, 25°C): 3.87 kcal/mol
Δb_protonG ([3]; sulfonamide group, 25°C): -10.9 kcal/mol
Δb_protonH ([3]; sulfonamide group, 25°C): -7.05 kcal/mol
Δb_protonS ([3]; sulfonamide group, 25°C): 54.2 J/(mol × K)
pKa [2]: 8.0

TΔbSintr (hCA XIII [1]): 2.44 kcal/mol
ΔbGintr (hCA XIII [1]): -10.5 kcal/mol
ΔbHintr (hCA XIII [1]): -8.01 kcal/mol
ΔbSintr (hCA XIII [1]): 34.3 J/(mol × K)
net number of uptaken or released protons upon binding (hCA XIII [4]; pH 7.0, 25°C, slope of observed enthalpy versus buffer protonation enthalpy): approximately equal to zero
observed enthalpies of binding, span over pH and buffers (hCA XIII [4]; sodium phosphate and TRIS chloride buffers, 25°C, as a function of pH): −10 to −70 kJ/mol
SMILES: NS(=O)(=O)C(F)(F)F [TFMSA, trifluoromethanesulfonamide]

SMILES: CS(N)(=O)=O [methanesulfonamide]
Kd (CA II): 300 µM
